Test results from PubChem BioAssay (NCI).
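Interpolation was linear, between the two tested concentrations surrounding the appropriate level; five concentrations were tested over 48 hours in 96-well plates. Here, GI50 denotes the concentration required for 50% inhibition of growth. TGI is the concentration that stops growth completely.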

What was measured:
Assay in all cases: DTP human tumour cell line panel, 48 h; in the data active = GI50 below about 0.43 µM; inactive = the rest
K-562 leukemia = system: K-562 leukemia
COLO 205 colon = system: COLO 205 colon
MOLT-4 leukemia = system: MOLT-4 leukemia
NCI/ADR-RES ovarian = system: NCI/ADR-RES ovarian
SNB-19 CNS = system: SNB-19 CNS
UACC-62 melanoma = system: UACC-62 melanoma
SR leukemia = system: SR leukemia
SK-OV-3 ovarian = system: SK-OV-3 ovarian
SF-539 CNS = system: SF-539 CNS
MDA-MB-231 breast = system: MDA-MB-231 breast
EKVX NSCLC = system: EKVX NSCLC
MDA-MB-435 = system: MDA-MB-435
LOX IMVI melanoma = system: LOX IMVI melanoma
HCT-15 colon = system: HCT-15 colon
HS 578T breast = system: HS 578T breast
SF-268 CNS = system: SF-268 CNS
SF-295 CNS = system: SF-295 CNS
HCT-116 colon = system: HCT-116 colon
ACHN renal = system: ACHN renal
OVCAR-4 ovarian = system: OVCAR-4 ovarian
SN12C renal = system: SN12C renal
OVCAR-8 ovarian = system: OVCAR-8 ovarian
MCF7 breast = system: MCF7 breast
NCI-H226 lung = system: NCI-H226 lung
OVCAR-5 ovarian = system: OVCAR-5 ovarian
SK-MEL-28 melanoma = system: SK-MEL-28 melanoma
NCI-H460 lung = system: NCI-H460 lung
OVCAR-3 ovarian = system: OVCAR-3 ovarian
HT29 colon = system: HT29 colon
SNB-75 CNS = system: SNB-75 CNS
KM12 colon = system: KM12 colon
HCC-2998 colon = system: HCC-2998 colon
NCI-H522 lung = system: NCI-H522 lung
TK-10 renal = system: TK-10 renal
RXF 393 renal = system: RXF 393 renal
UO-31 renal = system: UO-31 renal
T-47D breast = system: T-47D breast
BT-549 breast = system: BT-549 breast
786-0 renal = system: 786-0 renal
U251 CNS = system: U251 CNS
HL-60(TB) leukemia = system: HL-60(TB) leukemia
A549 NSCLC = system: A549 NSCLC
DU-145 prostate = system: DU-145 prostate
SK-MEL-2 melanoma = system: SK-MEL-2 melanoma
IGROV1 ovarian = system: IGROV1 ovarian
SW-620 colon = system: SW-620 colon
M14 melanoma = system: M14 melanoma
CAKI-1 renal = system: CAKI-1 renal
NCI-H23 lung = system: NCI-H23 lung
SK-MEL-5 melanoma = system: SK-MEL-5 melanoma
MALME-3M melanoma = system: MALME-3M melanoma
UACC-257 melanoma = system: UACC-257 melanoma
HOP-92 NSCLC = system: HOP-92 NSCLC
RPMI-8226 leukemia = system: RPMI-8226 leukemia
PC-3 prostate = system: PC-3 prostate
HOP-62 NSCLC = system: HOP-62 NSCLC
CCRF-CEM leukemia = system: CCRF-CEM leukemia

Nc1ccn([C@@H]2C(F)=C(CO)[C@@H](O)[C@H]2O)c(=O)n1
active: GI50 (HCT-116 colon) 0.395 µM | GI50 (MCF7 breast) 0.362 µM | GI50 (NCI-H460 lung) 0.384 µM | GI50 (A549 NSCLC) 0.42 µM
inactive: GI50 (K-562 leukemia) 0.781 µM | GI50 (COLO 205 colon) 0.838 µM | GI50 (MOLT-4 leukemia) 1.85 µM | GI50 (NCI/ADR-RES ovarian) 0.578 µM | GI50 (SNB-19 CNS) 2.81 µM | GI50 (UACC-62 melanoma) 3.78 µM | GI50 (SR leukemia) 0.443 µM | GI50 (SK-OV-3 ovarian) 4.95 µM | GI50 (SF-539 CNS) 1.94 µM | GI50 (MDA-MB-231 breast) 2.73 µM | GI50 (EKVX NSCLC) 26.8 µM | GI50 (MDA-MB-435) 0.846 µM | GI50 (LOX IMVI melanoma) 0.453 µM | GI50 (HCT-15 colon) 0.545 µM | GI50 (HS 578T breast) 12.3 µM | GI50 (SF-268 CNS) 1.53 µM | GI50 (SF-295 CNS) 4.2 µM | GI50 (ACHN renal) 0.755 µM | GI50 (OVCAR-4 ovarian) 23.2 µM | GI50 (SN12C renal) 0.448 µM | GI50 (OVCAR-8 ovarian) 0.551 µM | GI50 (NCI-H226 lung) 11.5 µM | GI50 (OVCAR-5 ovarian) 12.2 µM | GI50 (SK-MEL-28 melanoma) 6.91 µM | GI50 (OVCAR-3 ovarian) 4.17 µM | GI50 (HT29 colon) 0.625 µM | GI50 (SNB-75 CNS) 9.94 µM | GI50 (KM12 colon) 0.65 µM | GI50 (HCC-2998 colon) 0.962 µM | GI50 (NCI-H522 lung) 0.45 µM | GI50 (TK-10 renal) 6.73 µM | GI50 (RXF 393 renal) 8.04 µM | GI50 (UO-31 renal) 0.462 µM | GI50 (T-47D breast) 5.02 µM | GI50 (BT-549 breast) 23.5 µM | GI50 (786-0 renal) 0.726 µM | GI50 (U251 CNS) 2.78 µM | GI50 (HL-60(TB) leukemia) 0.889 µM | GI50 (DU-145 prostate) 0.445 µM | GI50 (SK-MEL-2 melanoma) > 100 µM | GI50 (IGROV1 ovarian) 2.88 µM | GI50 (SW-620 colon) 0.546 µM | GI50 (M14 melanoma) 0.859 µM | GI50 (CAKI-1 renal) 7.1 µM | GI50 (NCI-H23 lung) 3.84 µM | GI50 (SK-MEL-5 melanoma) 4.37 µM | GI50 (MALME-3M melanoma) 9.57 µM
> 100 µM: TGI (K-562 leukemia) | TGI (COLO 205 colon) | TGI (MOLT-4 leukemia) | TGI (NCI/ADR-RES ovarian) | TGI (SNB-19 CNS) | TGI (UACC-62 melanoma) | TGI (SR leukemia) | TGI (SK-OV-3 ovarian) | TGI (SF-539 CNS) | TGI (MDA-MB-231 breast) | TGI (EKVX NSCLC) | TGI (MDA-MB-435) | TGI (LOX IMVI melanoma) | TGI (HCT-15 colon) | TGI (HS 578T breast) | TGI (SF-268 CNS) | TGI (SF-295 CNS) | TGI (HCT-116 colon) | TGI (ACHN renal) | TGI (OVCAR-4 ovarian) | TGI (SN12C renal) | TGI (OVCAR-8 ovarian) | TGI (MCF7 breast) | TGI (NCI-H226 lung) | TGI (OVCAR-5 ovarian) | TGI (SK-MEL-28 melanoma) | TGI (NCI-H460 lung) | TGI (OVCAR-3 ovarian) | TGI (HT29 colon) | TGI (SNB-75 CNS) | TGI (KM12 colon) | TGI (HCC-2998 colon) | TGI (NCI-H522 lung) | TGI (TK-10 renal) | TGI (RXF 393 renal) | TGI (UO-31 renal) | TGI (T-47D breast) | TGI (BT-549 breast) | TGI (786-0 renal) | TGI (U251 CNS) | TGI (HL-60(TB) leukemia) | TGI (A549 NSCLC) | TGI (DU-145 prostate) | TGI (SK-MEL-2 melanoma) | TGI (IGROV1 ovarian) | TGI (SW-620 colon) | TGI (M14 melanoma) | TGI (CAKI-1 renal) | TGI (NCI-H23 lung) | TGI (SK-MEL-5 melanoma) | TGI (MALME-3M melanoma)

CN(C)CCCC1(c2ccc(F)cc2)OCc2cc(-c3cncc4ccccc34)ccc21 (stereo unspecified)
3.27 µM: TGI (LOX IMVI melanoma)
20.1 µM: TGI (NCI-H23 lung)
4.72 µM: TGI (COLO 205 colon)
6.7 µM: TGI (MOLT-4 leukemia)
5.96 µM: TGI (RPMI-8226 leukemia)
11.8 µM: TGI (DU-145 prostate)
3.71 µM: TGI (HCC-2998 colon)
5.88 µM: TGI (CAKI-1 renal)
17.9 µM: TGI (SR leukemia)
4.08 µM: TGI (NCI-H522 lung)
9.72 µM: TGI (786-0 renal)
16.2 µM: TGI (A549 NSCLC)
12.6 µM: TGI (HCT-15 colon)
8.23 µM: TGI (HT29 colon)
6.57 µM: TGI (MDA-MB-231 breast)
3.22 µM: TGI (MDA-MB-435)
18.3 µM: TGI (OVCAR-5 ovarian)
7.4 µM: TGI (SNB-19 CNS)
13.7 µM: TGI (OVCAR-4 ovarian)
12.5 µM: TGI (ACHN renal)
20.5 µM: TGI (BT-549 breast)
11.6 µM: TGI (HS 578T breast) | TGI (CCRF-CEM leukemia)
4.15 µM: TGI (HL-60(TB) leukemia)
4.2 µM: TGI (SF-295 CNS)
21.2 µM: TGI (EKVX NSCLC)
3.2 µM: TGI (SK-MEL-5 melanoma)
13.9 µM: TGI (SF-268 CNS)
4.74 µM: TGI (SK-MEL-2 melanoma)
3.29 µM: TGI (SF-539 CNS)
18.8 µM: TGI (NCI/ADR-RES ovarian) | TGI (SK-OV-3 ovarian)
4.57 µM: TGI (MCF7 breast)
5.17 µM: TGI (K-562 leukemia) | TGI (UACC-62 melanoma)
3.24 µM: TGI (SK-MEL-28 melanoma)
27 µM: TGI (NCI-H226 lung)
17 µM: TGI (SN12C renal)
8.81 µM: TGI (HOP-92 NSCLC)
16.8 µM: TGI (HOP-62 NSCLC)
6.86 µM: TGI (SNB-75 CNS)
15 µM: TGI (PC-3 prostate)
5.7 µM: TGI (U251 CNS)
7.28 µM: TGI (T-47D breast)
3.49 µM: TGI (NCI-H460 lung)
10.1 µM: TGI (RXF 393 renal)
12.2 µM: TGI (TK-10 renal) | TGI (IGROV1 ovarian)
inactive: GI50 (K-562 leukemia) 2.02 µM | GI50 (UACC-257 melanoma) 2.02 µM | GI50 (COLO 205 colon) 2.07 µM | GI50 (MOLT-4 leukemia) 2.39 µM | GI50 (NCI/ADR-RES ovarian) 4.89 µM | GI50 (SNB-19 CNS) 2.35 µM | GI50 (UACC-62 melanoma) 2.24 µM | GI50 (SR leukemia) 3 µM | GI50 (SK-OV-3 ovarian) 5.48 µM | GI50 (SF-539 CNS) 1.76 µM | GI50 (MDA-MB-231 breast) 2.1 µM | GI50 (EKVX NSCLC) 8.48 µM | GI50 (MDA-MB-435) 1.71 µM | GI50 (LOX IMVI melanoma) 1.72 µM | GI50 (HCT-15 colon) 3.32 µM | GI50 (HS 578T breast) 2.78 µM | GI50 (SF-268 CNS) 3.15 µM | GI50 (SF-295 CNS) 2.02 µM | GI50 (HCT-116 colon) 2.94 µM | GI50 (ACHN renal) 3.34 µM | GI50 (OVCAR-4 ovarian) 3.27 µM | GI50 (SN12C renal) 4.05 µM | GI50 (OVCAR-8 ovarian) 4.48 µM | GI50 (HOP-92 NSCLC) 1.58 µM | GI50 (MCF7 breast) 1.89 µM | GI50 (NCI-H226 lung) 8.65 µM | GI50 (OVCAR-5 ovarian) 5.23 µM | GI50 (SK-MEL-28 melanoma) 1.75 µM | GI50 (NCI-H460 lung) 1.73 µM | GI50 (OVCAR-3 ovarian) 2.94 µM | GI50 (HT29 colon) 2.36 µM | GI50 (SNB-75 CNS) 1.66 µM | GI50 (KM12 colon) 3.41 µM | GI50 (HCC-2998 colon) 1.84 µM | GI50 (NCI-H522 lung) 1.88 µM | GI50 (TK-10 renal) 2.83 µM | GI50 (RXF 393 renal) 2.51 µM | GI50 (UO-31 renal) 1.53 µM | GI50 (T-47D breast) 2.43 µM | GI50 (BT-549 breast) 7.45 µM | GI50 (786-0 renal) 2.71 µM | GI50 (U251 CNS) 2.22 µM | GI50 (HL-60(TB) leukemia) 1.81 µM | GI50 (A549 NSCLC) 3.92 µM | GI50 (DU-145 prostate) 3.4 µM | GI50 (SK-MEL-2 melanoma) 2.14 µM | GI50 (IGROV1 ovarian) 2.88 µM | GI50 (SW-620 colon) 3.08 µM | GI50 (RPMI-8226 leukemia) 2.51 µM | GI50 (M14 melanoma) 1.82 µM | GI50 (PC-3 prostate) 3.36 µM | GI50 (CAKI-1 renal) 2 µM | GI50 (NCI-H23 lung) 5.73 µM | GI50 (SK-MEL-5 melanoma) 1.77 µM | GI50 (HOP-62 NSCLC) 3.8 µM | GI50 (MALME-3M melanoma) 1.55 µM | GI50 (CCRF-CEM leukemia) 3.45 µM
11.5 µM: TGI (SW-620 colon)
12.1 µM: TGI (KM12 colon)
3.09 µM: TGI (MALME-3M melanoma)
3.77 µM: TGI (M14 melanoma)
9.88 µM: TGI (OVCAR-3 ovarian)
4.41 µM: TGI (UO-31 renal)
19.8 µM: TGI (OVCAR-8 ovarian)
11 µM: TGI (HCT-116 colon)
4 µM: TGI (UACC-257 melanoma)
